Values joined by “and” are separate entries in the source; they are usually repeats but may differ in a detail not shown here. Equal entries are not always repeated. Where only a bound is given, the exact number is not on record here.

Test [1] deals with T1, Human immunodeficiency virus type 1 integrase (Human immunodeficiency virus 1, UniProt Q7ZJM1). In words: Inhibition of HIV1 integrase strand transfer activity.
Test [2] addresses T1, Human immunodeficiency virus type 1 integrase. In words: Inhibition of HIV1 integrase 3'-end processing activity.

T1 sequence (Q7ZJM1 whole entry): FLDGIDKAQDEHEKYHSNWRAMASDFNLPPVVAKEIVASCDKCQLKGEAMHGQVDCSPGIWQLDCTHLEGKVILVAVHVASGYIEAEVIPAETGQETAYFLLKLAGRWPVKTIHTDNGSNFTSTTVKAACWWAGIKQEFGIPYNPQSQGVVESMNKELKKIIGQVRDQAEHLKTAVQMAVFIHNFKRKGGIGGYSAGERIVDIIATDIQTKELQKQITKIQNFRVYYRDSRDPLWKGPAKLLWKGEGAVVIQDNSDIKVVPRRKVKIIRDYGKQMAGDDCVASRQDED

For the molecule `COc1ccc(/C=C/C(=O)c2ccc(O)cc2O)cc1`, the IC50 in test [1] was 39 µM; in test [2], greater than 100 µM.

On to `Cc1cc(O)nc(SCC(=O)c2ccc(O)c(O)c2)n1`, for which the IC50 in test [1] stood at 130 µM; in test [2], 310 µM.

As to `O=C(/C=C/c1ccc2c(c1)OCO2)c1ccccc1`, the IC50 in test [1] and in test [2] was greater than 100 µM in each case.

On to `O=C(/C=C/c1cccc(NC(=O)c2cccs2)c1)c1ccccc1`, for which the figures for the IC50 in test [1] and in test [2] were 89 µM and greater than 100 µM, respectively.

Consider `O=C(/C=C/c1ccccc1OC(=O)c1cc2ccccc2oc1=O)c1ccccc1`, for which the values for the IC50 in test [1] and in test [2] were 92 µM and greater than 100 µM, respectively.

For the molecule `COc1ccc(OC)c(C(=O)/C=C/c2ccc3c(c2)OCO3)c1`, the IC50 in test [1] and in test [2] was greater than 100 µM each time.

As to `COc1cc(OC)c(C(=O)/C=C/c2cccc([N+](=O)[O-])c2)cc1OC`, the IC50 in test [1] and in test [2] was greater than 100 µM in each case.

For the molecule `Cc1ccc(NCC(=O)N/N=C/c2cccc(OC(=O)c3ccc4c(c3)OCO4)c2)cc1`, the IC50 in test [1] amounted to 731 µM; in test [2], 670 µM.

For the molecule `CCCn1c(=O)c(C(=O)NNC(=O)c2ccccc2)c(O)c2ccccc21`, the figures for the IC50 in test [1] and in test [2] were 66 µM and 100 µM, respectively.

Regarding `CCCOc1ccc(/C=N/NC2=NC(c3ccccc3O)CC(c3ccccc3)=N2)c(O)c1` (stereo unspecified), the IC50 worked out at 60 µM in test [1] and 64 µM in test [2].

Turning to `O=c1nc2n(-c3ccc(Cl)cc3)c3ccc([N+](=O)[O-])cc3cc-2c(=O)[nH]1`, the IC50 in test [1] came out at 49 µM; in test [2], 78 µM.

Turning to `CCCC(=O)NC(c1ccc(OC)c(OC)c1)c1cc(Cl)c2cccnc2c1O` (stereo unspecified), the IC50 in test [1] was 90 µM; in test [2], greater than 100 µM.

For `CCn1c(=O)c(C(=O)NNC(=O)c2ccccc2[N+](=O)[O-])c(O)c2ccccc21`, the IC50 was 30 µM in test [1] and 36 µM in test [2].

As to `Cc1cc(C)cc(OCC(=O)NNC(=O)c2cc3ccccc3oc2=O)c1`, the IC50 in test [1] came to 72 µM; in test [2] it was 74 µM.

On to `O=C(Nc1nccs1)/C(O)=C/C(=O)c1ccc(Cl)cc1`, for which the figures for the IC50 in test [1] and in test [2] were 70 µM and 95 µM, respectively.

On to `O=C(COc1ccc2ccccc2c1)NNC(=O)c1cc2ccccc2cc1O`, for which the IC50 is 12 µM in test [1] and 18 µM in test [2].

As to `O=C(NC1CCCCC1)C(c1ccco1)N(C(=O)Cn1nnc2ccccc21)c1ccc(S(=O)(=O)NCC2CCCO2)cc1` (stereo unspecified), the IC50 in test [1] and in test [2] was greater than 100 µM in each case.

Turning to `CCn1c(=O)c(C(=O)NNC(=O)c2ccc([N+](=O)[O-])cc2)c(O)c2ccccc21`, the IC50 was found to be 20 µM in test [1] and 32 µM in test [2].

Regarding `Nc1ccc(C(=O)CC(=O)Nc2cc(C(=O)O)cc(C(=O)O)c2)cc1`, the figures for the IC50 in test [1] and in test [2] were 43 µM and 41 µM, respectively.

With `O=C(Oc1ccc(/C=N/Nc2nnc3c(n2)[nH]c2ccccc23)cc1)c1ccc(Br)cc1`, the IC50 came to 800 µM in test [1] and 857 µM in test [2].

As for `COc1cccc(C(=O)NNC(=O)c2ccc3ccccc3c2O)c1`, the IC50 in test [1] was 33 µM; in test [2], 42 µM.

For the molecule `CCCn1c(=O)c(C(=O)NNC(=O)CC(=O)OCC)c(O)c2ccccc21`, the IC50 is 48 µM in test [1] and greater than 100 µM in test [2].

Consider `O=C(CSc1nc(O)c2ccccc2n1)c1ccc(O)c(O)c1`, for which the IC50 was determined as 77 µM in test [1] and 87 µM in test [2].

In the case of `Oc1ccc(Cl)cc1/C=C/c1ccc2cccc(O)c2n1`, the IC50 was determined as 220 µM in test [1] and 195 µM in test [2].

On to `Oc1ccc(-c2csc(Nc3ncccn3)n2)cc1O`, for which the IC50 in test [1] came out at 83 µM; in test [2] it was 300 µM.

Consider `O=C1Nc2ccccc2/C1=N\NC(=O)c1ccc(O)cc1O`, for which the IC50 in test [1] was 36 µM; in test [2] it was greater than 100 µM.

Take `Cc1ccc(NC(=O)CN2C(=O)/C(=N\NC(=O)c3ccc4ccccc4n3)c3ccccc32)cc1`: the IC50 in test [1] and in test [2] was 84 µM each time.

With `O=C(CCC(=O)Nc1ccc([N+](=O)[O-])c(C(F)(F)F)c1)Nc1ccc([N+](=O)[O-])c(C(F)(F)F)c1`, the results for the IC50 in test [1] and in test [2] were 210 µM and 196 µM, respectively.

As for `CNc1nc(N/N=C/c2ccc(-c3ccc([N+](=O)[O-])cc3OC)o2)nc(Nc2ccccc2)n1`, the IC50 in test [1] amounted to 37 µM; in test [2], 81 µM.

`CCOc1cc(Br)cc(/C=N/c2ncccc2O)c1O`: the IC50 in test [1] amounted to 81 µM; in test [2], 143 µM.

For `O=C(CSc1nnc(-c2ccncc2)[nH]1)c1ccc(O)cc1O`, the figures for the IC50 in test [1] and in test [2] were 25 µM and 91 µM, respectively.

As for `Nc1cc(O)nc(SCC(=O)c2ccc(O)c(O)c2)n1`, the IC50 in test [1] amounted to 89 µM; in test [2], 278 µM.

For `CCCc1nc2ccccc2c(=O)n1NC(=O)c1c(O)c2cccc3c2n(c1=O)CCC3`, the IC50 in test [1] turned out to be 58 µM; in test [2], 64 µM.

As to `COc1ccc(C(=O)Nc2ccccc2C(=O)NC(C(=O)NNC(=O)c2ccccc2O)C(C)C)cc1` (stereo unspecified), the figures for the IC50 in test [1] and in test [2] were 16 µM and 19 µM, respectively.

Turning to `Cc1nc(SCC(=O)c2ccc(O)c(O)c2)c(C#N)c(CC(C)C)c1C(N)=O`, the IC50 in test [1] was 85 µM; in test [2] it was greater than 100 µM.

As for `O=S(=O)(Nc1ccc(Br)cc1)c1ccc(Sc2ccc(S(=O)(=O)Nc3ccc(Br)cc3)cc2)cc1`, the IC50 in test [1] came to 251 µM; in test [2] it was 161 µM.

For `NC(=O)NN=C1c2cc(S(=O)(=O)NCc3ccco3)ccc2-c2ccc(S(=O)(=O)NCc3ccco3)cc21`, the results for the IC50 in test [1] and in test [2] were 20 µM and 92 µM, respectively.

As to `CCCn1c(=O)c(C(=O)NNC(=O)COc2ccccc2)c(O)c2ccccc21`, the IC50 in test [1] and in test [2] was greater than 100 µM throughout.

Take `COc1cc(C(NC(=O)c2ccco2)NC(=O)c2ccco2)ccc1OCc1ccccc1`: the IC50 in test [1] and in test [2] was greater than 100 µM each time.

On to `Cn1c(=O)[nH]c(=O)c2c1nc(SCC(O)CCl)n2CC(O)COc1ccc(Cl)cc1` (stereo unspecified), for which the IC50 in test [1] and in test [2] was greater than 100 µM throughout.

For the molecule `O=C(Nc1cccc(O)c1)c1cc(C(=O)Nc2cccc(O)c2)cc(N2C(=O)c3ccccc3C2=O)c1`, the IC50 in test [1] and in test [2] was 100 µM each time.

Take `CCCCCCc1nc2ccccc2c(=O)n1NC(=O)c1c(O)c2ccccc2n(CC)c1=O`: the IC50 in test [1] and in test [2] was greater than 100 µM in each case.

Take `CCCn1c(N/N=C/c2cc(Br)ccc2O)nc2c1c(=O)[nH]c(=O)n2C`: the IC50 in test [1] was 80 µM; in test [2] it was greater than 100 µM.

With `CCc1nc2sc3c(c2c2nnc(SCC(=O)NNC(=O)c4ccc(OC)cc4)n12)CCCC3`, the 50% inhibitory concentration (IC50) in test [1] is 100 µM; in test [2] it was greater than 100 µM.

For `O=C(O)COc1ccccc1/C=N/Nc1nncc(-c2ccccc2)n1`, the values for the IC50 in test [1] and in test [2] were 224 µM and 212 µM, respectively.

As for `COc1ccc(Nc2nc(NCc3ccco3)nc(N/N=C/c3ccc(Br)cc3)n2)cc1`, the IC50 came to 13 µM in test [1] and 18 µM in test [2].

On to `O=C(NNC(=O)c1c(O)c2ccccc2[nH]c1=O)c1ccccc1[N+](=O)[O-]`, for which the IC50 in test [1] came to 46 µM; in test [2], 54 µM.

Regarding `O=C(NNC(=O)c1c(O)c2ccccc2[nH]c1=O)c1cccc([N+](=O)[O-])c1`, the IC50 in test [1] amounted to 1 µM; in test [2], 3.3 µM.

In the case of `O=C(NNC(=O)c1c(O)c2ccccc2[nH]c1=O)c1ccccc1`, the IC50 in test [1] worked out at 28 µM; in test [2], 100 µM.

Take `O=C(O)c1ccc(NCN2C(=O)c3ccc([N+](=O)[O-])cc3C2=O)cc1`: the IC50 is 180 µM and 189 µM in test [1]; 180 µM and 138 µM in test [2].

Regarding `COc1ccc(C(=O)NNC(=O)c2cc3ccccc3cc2O)cc1`, the IC50 amounted to 18 µM in test [1] and 49 µM in test [2].

In the case of `O=C(/C=C/c1ccc2c(c1)OCO2)c1ccccc1O`, the IC50 in test [1] and in test [2] was greater than 100 µM each time.

Turning to `COc1cc(C(=O)/C=C/c2ccc3c(c2)OCO3)cc(OC)c1OC`, the IC50 in test [1] and in test [2] was greater than 100 µM throughout.

Consider `O=C(N/N=C/c1ccc(O)c(O)c1)c1ccccc1O`, for which the IC50 came out at 26 µM in test [1] and 70 µM in test [2].

As to `COc1ccc(NC(=O)c2cccc(S(=O)(=O)Nc3ccc(C(=O)O)cc3)c2)cc1`, the IC50 in test [1] was found to be 70 µM; in test [2] it was 80 µM.

Consider `CC(=O)Nc1ccc2c(c1)OCCOCCOc1cc(NC(C)=O)ccc1OCCOCCO2`, for which the IC50 was found to be 680 µM in test [1] and 679 µM in test [2].

Consider `O=C(N/N=C/c1cccc([N+](=O)[O-])c1)c1cccc(C(=O)N/N=C/c2cccc([N+](=O)[O-])c2)n1`, for which the IC50 is 130 µM in test [1] and 150 µM in test [2].

For `CCn1c(=O)c(C(=O)NNC(=O)c2cccc([N+](=O)[O-])c2)c(O)c2ccccc21`, the values for the IC50 in test [1] and in test [2] were 17 µM and 37 µM, respectively.

For `COc1cc(C(=O)/C=C/c2ccc3c(c2)OCO3)ccc1O`, the IC50 in test [1] and in test [2] was greater than 100 µM throughout.

Turning to `O=C(COc1ccc2ccccc2c1)NNC(=O)c1ccccc1O`, the figures for the IC50 in test [1] and in test [2] were 18 µM and 29 µM, respectively.

With `O=C1Nc2ccccc2/C1=N/NC(=O)c1ccccc1O`, the IC50 in test [1] was 57 µM; in test [2], greater than 100 µM.

In the case of `O=C(NNC(=O)c1c(O)c2ccccc2[nH]c1=O)c1ccccc1F`, the results for the IC50 in test [1] and in test [2] were 30 µM and 52 µM, respectively.

`O=C(N/N=C/c1c[nH]c2ccccc12)c1ccc(O)c(O)c1`: the IC50 was 460 µM in test [1] and greater than 1000 µM in test [2].

In the case of `O=C(CSc1nc2ccccc2c(=O)n1CC1CCCO1)NNC(=O)c1ccccc1O` (stereo unspecified), the IC50 was 60 µM in test [1] and 85 µM in test [2].

For `COc1ccc(NC(=O)CSc2nc(-c3ccncc3)nn2CC(=O)NCc2ccco2)cc1`, the IC50 in test [1] and in test [2] was greater than 100 µM each time.

As to `Cn1c(SCC(=O)NNC(=O)c2cccc(O)c2)nc2sc3c(c2c1=O)CCC3`, the IC50 was determined as 100 µM in test [1] and 87 µM in test [2].

In the case of `Oc1ccc(Br)cc1/C=N/Nc1nc2nonc2nc1Nc1ccc(F)cc1`, the IC50 in test [1] stood at 11 µM; in test [2], 16 µM.

Consider `O=C(CSc1nc(SCC(=O)NCc2ccco2)nc(SCC(=O)NCc2ccco2)n1)NCc1ccco1`, for which the concentration for half-maximal inhibition (IC50) was 12 µM in test [1] and 28 µM in test [2].

Values taken from ChEMBL document CHEMBL1139988, “Discovery of structurally diverse HIV-1 integrase inhibitors based on a chalcone pharmacophore” (Bioorg Med Chem, 2007).
